The source made the active and inactive calls. The rule behind the calls is not given here.
What was measured:
GT1-7 = experiment: Antiprion activity in human transmissible spongiform encephalopathies agent Fukuoka-1 prion infected GT1-7 cells assessed as proteinase K-resistant proteins at 10 uM after 3 days Western blotting analysis relative to control; assay type: cell-based
[1] = Antiprion activity in human transmissible spongiform encephalopathies agent Fukuoka-1 prion infected GT1-7 cells assessed as proteinase K-resistant proteins after 3 days Western blotting analysis; assay type: cell-based; conditions: GT1-7, 72 h
Mus musculus [2] = species: Mus musculus; experiment: Effect on PrPc expression level in mouse GT1-7 at 10 uM after 3 days by Western blot method
Mus musculus [3] = species: Mus musculus; experiment: Effect on PrPc expression level in mouse GT1-7 at 2 uM after 3 days by Western blot method
Mus musculus [4] = species: Mus musculus; experiment: Binding affinity to mouse PrPC by surface plasmon resonance
[5] = Cytotoxicity against mouse GT1-7 cells at 2 uM; assay type: cell-based; conditions: gt1-7, 2 µM

Row | SMILES | Activity (GT1-7) | further results
1 | Nc1ccc(Cc2ccc(N)cc2)cc1 | 86% | –
2 | O=C(CN1CCCC1)Nc1ccc(Cc2ccc(NC(=O)CN3CCOCC3)cc2)cc1 | 77% | –
3 | O=C(CN1CCCC1)Nc1ccc(C(O)c2ccc(NC(=O)CN3CCCC3)cc2)cc1 | 62% | –
4 | O=C(CC1CCCC1)Nc1ccc(Cc2ccc(NC(=O)CC3CCCC3)cc2)cc1 | 86% | –
5 | CCCCNCC(=O)Nc1ccc(Cc2ccc(NC(=O)CNCCCC)cc2)cc1 | 24% | –
6 | COC(=O)[C@H]1CCCN1CC(=O)Nc1ccc(Cc2ccc(NC(=O)CN3CCC[C@@H]3C(=O)OC)cc2)cc1 | 112% | –
7 | CC(C)(c1ccc(NC(=O)CN2CCCC2)cc1)c1cccc(C(C)(C)c2ccc(NC(=O)CN3CCCC3)cc2)c1 | – | IC50 [1]: 0.83 µM
8 | O=C(Cn1cccn1)Nc1ccc(Cc2ccc(NC(=O)Cn3cccn3)cc2)cc1 | 106% | –
9 | O=C(CN1CCC[C@H]1CO)Nc1ccc(Cc2ccc(NC(=O)CN3CCC[C@H]3CO)cc2)cc1 | 91% | –
10 | O=C(Nc1ccc(Cc2ccc(NC(=O)[C@@H]3CCCN3)cc2)cc1)[C@@H]1CCCN1 | 25% | –
11 | O=C(CN1CCCC1)Nc1ccc2c(c1)Cc1cc(NC(=O)CN3CCCC3)ccc1-2 | 45% | –
12 | Nc1c(/N=N/c2ccc(-c3ccc(/N=N/c4cc(S(=O)(=O)O)c5ccccc5c4N)cc3)cc2)cc(S(=O)(=O)O)c2ccccc12 [CONGO RED] | – | IC50 [1]: 5.5 µM
13 | O=C(CN1CC[C@@H](O)C1)Nc1ccc(Cc2ccc(NC(=O)CN3CC[C@@H](O)C3)cc2)cc1 | 108% | –
14 | CN(C)[C@H]1CCN(CC(=O)Nc2ccc(Cc3ccc(NC(=O)CN4CC[C@H](N(C)C)C4)cc3)cc2)C1 | 34% | Activity (Mus musculus [2]): inactive
15 | O=C(CN1CCCC1)Nc1ccccc1NC(=O)CN1CCCC1 | 82% | –
16 | O=C(CN1C(=O)CCC1=O)Nc1ccc(Cc2ccc(NC(=O)CN3C(=O)CCC3=O)cc2)cc1 | 90% | –
17 | O=C(CN1CCCC1)Nc1ccc(Cc2cccc(NC(=O)CN3CCCC3)c2)cc1 | 19% | Activity (Mus musculus [2]): inactive
18 | CC(C)(c1ccc(NC(=O)CN2CCCC2)cc1)c1ccc(C(C)(C)c2ccc(NC(=O)CN3CCCC3)cc2)cc1 | – | IC50 [1]: 0.69 µM
19 | c1cc(NCCN2CCCC2)ccc1Cc1ccc(NCCN2CCCC2)cc1 | 28% | –
20 | O=C(CN1CC[C@H](F)C1)Nc1ccc(Cc2ccc(NC(=O)CN3CC[C@H](F)C3)cc2)cc1 | 112% | –
21 | Nc1ccc(Cc2ccc(NC(=O)CN3CCCC3)cc2)cc1 | 75% | –
22 | O=C(CNC1CCCC1)Nc1ccc(Cc2ccc(NC(=O)CNC3CCCC3)cc2)cc1 | 26% | –
23 | O=C(CN1CCCCC1)Nc1ccc(Cc2ccc(NC(=O)CN3CCCC3)cc2)cc1 | 29% | Activity (Mus musculus [2]): inactive
24 | O=C(CN1CCCC1)Nc1ccc(Sc2ccc(NC(=O)CN3CCCC3)cc2)cc1 | 22% | Activity (Mus musculus [2]): inactive

Row | SMILES | Activity (GT1-7) | further results
25 | NCC(=O)Nc1ccc(Cc2ccc(NC(=O)CN)cc2)cc1 | 102% | –
26 | O=C(CN1CCCC1)Nc1ccc(Cc2ccc(NC(=O)CN3CCC[C@@H]3CO)cc2)cc1 | 44% | Activity (Mus musculus [2]): inactive
27 | CN(C(=O)CN1CCCC1)c1ccc(Cc2ccc(N(C)C(=O)CN3CCCC3)cc2)cc1 | 77% | –
28 | O=C(CN1CCCC1)Nc1ccc(C(c2ccc(F)cc2)(c2ccc(NC(=O)CN3CCCC3)cc2)C(F)(F)F)cc1 | – | Activity (Mus musculus [3]): inactive; IC50 [1]: 0.51 µM; RU (Mus musculus [4]): 32; Activity [5]: Non-toxic
29 | O=C(CN1CCCC1)Nc1ccc(Cc2ccc(NC(=O)CN3CC[C@@H](O)C3)cc2)cc1 | 43% | –
30 | O=C(CN1CCCC1)Nc1ccc(NC(=O)CN2CCCC2)cc1 | 88% | –
31 | CC(C)(C(=O)Nc1ccc(Cc2ccc(NC(=O)C(C)(C)N3CCCC3)cc2)cc1)N1CCCC1 | 45% | –
32 | COc1ccccc1C(c1ccc(NC(=O)CN2CCCC2)cc1)c1ccc(NC(=O)CN2CCCC2)cc1 | – | IC50 [1]: 0.58 µM
33 | O=C(CN1CC[C@H](O)C1)Nc1ccc(Cc2ccc(NC(=O)CN3CC[C@H](O)C3)cc2)cc1 | 90% | –
34 | CC(C)N(CC(=O)Nc1ccc(Cc2ccc(NC(=O)CN(C(C)C)C(C)C)cc2)cc1)C(C)C | 20% | –
35 | COc1cc(-c2ccc(NC(=O)CN3CCCC3)c(OC)c2)ccc1NC(=O)CN1CCCC1 | 42% | –
36 | O=C(CN1CCCC1)Nc1ccc(C(c2ccc(NC(=O)CN3CCCC3)cc2)C2CCCCCC2)cc1 | – | Activity (Mus musculus [3]): inactive; IC50 [1]: 0.51 µM; Activity [5]: Non-toxic
37 | O=C(CN1CCCC1)Nc1cccc(Cc2cccc(NC(=O)CN3CCCC3)c2)c1 | 20% | Activity (Mus musculus [2]): inactive
38 | CC(c1ccccc1)(c1ccc(NC(=O)CN2CCCC2)cc1)c1ccc(NC(=O)CN2CCCC2)cc1 | – | IC50 [1]: 0.66 µM
39 | O=C(Cn1ccnc1)Nc1ccc(Cc2ccc(NC(=O)Cn3ccnc3)cc2)cc1 | 167% | –
40 | CN(C)[C@@H]1CCN(CC(=O)Nc2ccc(Cc3ccc(NC(=O)CN4CC[C@@H](N(C)C)C4)cc3)cc2)C1 | 31% | Activity (Mus musculus [2]): inactive
41 | O=C(CN1CCC[C@@H]1CO)Nc1ccc(Cc2ccc(NC(=O)CN3CCC[C@@H]3CO)cc2)cc1 | 75% | –
42 | O=C(CN1CCC[C@H]1C(F)(F)F)Nc1ccc(Cc2ccc(NC(=O)CN3CCC[C@H]3C(F)(F)F)cc2)cc1 | 85% | –
43 | O=C(CN(C1CCCCC1)C1CCCCC1)Nc1ccc(Cc2ccc(NC(=O)CN(C3CCCCC3)C3CCCCC3)cc2)cc1 | 106% | –
44 | CCN(CC)CCCC(C)Nc1c2ccc(Cl)cc2nc2ccc(OC)cc12 (configuration not stated) [QUINACRINE] | – | IC50 [1]: 1.1 µM
45 | O=C(CN1CCCC1)Nc1ccc(Cc2ccc(NC(=O)CN3CCCC3)c(Cl)c2)cc1Cl | 38% | –
46 | CC(=O)Nc1ccc(Cc2ccc(NC(=O)CN3CCCC3)cc2)cc1 | 91% | –
47 | O=C(CN1CC[C@@H](F)C1)Nc1ccc(Cc2ccc(NC(=O)CN3CC[C@@H](F)C3)cc2)cc1 | 93% | –
48 | Nc1ccc(/N=N/c2ccccc2)c(N)c1 | inactive | –

Row | SMILES | Activity (GT1-7) | further results
49 | Cc1cc(Cc2cc(C)c(NC(=O)CN3CCCC3)c(C)c2)cc(C)c1NC(=O)CN1CCCC1 | 22% | Activity (Mus musculus [2]): inactive
50 | CC(=O)Nc1ccc(Cc2ccc(NC(C)=O)cc2)cc1 | 84% | –
51 | O=C(CN1CCCCCC1)Nc1ccc(Cc2ccc(NC(=O)CN3CCCCCC3)cc2)cc1 | 29% | Activity (Mus musculus [2]): inactive
52 | CCN(CC)CC(=O)Nc1ccc(Cc2ccc(NC(=O)CN(CC)CC)cc2)cc1 | 23% | Activity (Mus musculus [2]): inactive
53 | O=C(CN1CCCC1)Nc1ccc(Oc2ccc(NC(=O)CN3CCCC3)cc2)cc1 | 35% | –
54 | O=C(CN1CCCC1)Nc1ccc(Cc2ccc(NC(=O)CN3CC[C@H](O)C3)cc2)cc1 | 47% | –
55 | O=C(CN1CCOCC1)Nc1ccc(Cc2ccc(NC(=O)CN3CCOCC3)cc2)cc1 | 93% | –
56 | NCC(=O)Nc1ccc(Cc2ccc(NC(=O)CN3CCCC3)cc2)cc1 | 62% | –
57 | CN(C)CC(=O)Nc1ccc(Cc2ccc(NC(=O)CN(C)C)cc2)cc1 | 58% | –
58 | O=C(CN1CCCC1)Nc1ccc(Cc2ccc(NC(=O)CN3CCCC3)cc2)cc1 | 25% | IC50 [1]: 1.4 µM; RU (Mus musculus [4]): 15
59 | O=C(Nc1ccc(Cc2ccc(NC(=O)c3ccccn3)cc2)cc1)c1ccccn1 | 122% | –
60 | O=C(CN1CCCC1)NCCc1ccc(NC(=O)CN2CCCC2)cc1 | 86% | –
61 | O=C(CN1CCCCC1)Nc1ccc(Cc2ccc(NC(=O)CN3CCCCC3)cc2)cc1 | 24% | Activity (Mus musculus [2]): inactive
62 | COC(=O)[C@@H]1CCCN1CC(=O)Nc1ccc(Cc2ccc(NC(=O)CN3CCC[C@H]3C(=O)OC)cc2)cc1 | 61% | –
63 | O=C(CN1CCCC1)Nc1ccc(S(=O)(=O)c2ccc(NC(=O)CN3CCCC3)cc2)cc1 | 17% | Activity (Mus musculus [2]): inactive
64 | O=C(CN1CCCC1)Nc1ccc(Cc2ccc(NC(=O)CN3CCC[C@H]3CO)cc2)cc1 | 47% | Activity (Mus musculus [2]): inactive
65 | CCCN(CCC)CC(=O)Nc1ccc(Cc2ccc(NC(=O)CN(CCC)CCC)cc2)cc1 | 48% | –
66 | O=C(CN1CCCC1)Nc1ccc(C(=O)c2ccc(NC(=O)CN3CCCC3)cc2)cc1 | 24% | Activity (Mus musculus [2]): inactive
67 | CC(C)(C)C(c1ccc(NC(=O)CN2CCCC2)cc1)c1ccc(NC(=O)CN2CCCC2)cc1 | – | Activity (Mus musculus [3]): inactive; IC50 [1]: 0.79 µM
68 | O=C(CN1CCCC1)Nc1cccc2c(NC(=O)CN3CCCC3)cccc12 | 110% | –
69 | O=C(CN1CCCC1)Nc1ccc(CCc2ccc(NC(=O)CN3CCCC3)cc2)cc1 | 40% | –
70 | Nc1ccccc1Sc1nc(N)c(N)c(-c2ccco2)c1N | inactive | –
